Test results published in ChEMBL document CHEMBL1141500, “Thiol-based angiotensin-converting enzyme 2 inhibitors: P1' modifications for the exploration of the S1' subsite” (Bioorg Med Chem Lett, 2008).
pIC50, pKi: −log10 of the molar value.

Legend:
[1] = target: T1, Angiotensin-converting enzyme 2 (Homo sapiens, UniProt Q9BYF1); assay: Inhibition of ACE2
[2] = target: Angiotensin-converting enzyme (Homo sapiens, UniProt P12821); assay: Inhibition of human recombinant ACE by fluorescence assay; conditions: read-out: Ki app
Angiotensin-converting enzyme, sequence (P12821 whole entry): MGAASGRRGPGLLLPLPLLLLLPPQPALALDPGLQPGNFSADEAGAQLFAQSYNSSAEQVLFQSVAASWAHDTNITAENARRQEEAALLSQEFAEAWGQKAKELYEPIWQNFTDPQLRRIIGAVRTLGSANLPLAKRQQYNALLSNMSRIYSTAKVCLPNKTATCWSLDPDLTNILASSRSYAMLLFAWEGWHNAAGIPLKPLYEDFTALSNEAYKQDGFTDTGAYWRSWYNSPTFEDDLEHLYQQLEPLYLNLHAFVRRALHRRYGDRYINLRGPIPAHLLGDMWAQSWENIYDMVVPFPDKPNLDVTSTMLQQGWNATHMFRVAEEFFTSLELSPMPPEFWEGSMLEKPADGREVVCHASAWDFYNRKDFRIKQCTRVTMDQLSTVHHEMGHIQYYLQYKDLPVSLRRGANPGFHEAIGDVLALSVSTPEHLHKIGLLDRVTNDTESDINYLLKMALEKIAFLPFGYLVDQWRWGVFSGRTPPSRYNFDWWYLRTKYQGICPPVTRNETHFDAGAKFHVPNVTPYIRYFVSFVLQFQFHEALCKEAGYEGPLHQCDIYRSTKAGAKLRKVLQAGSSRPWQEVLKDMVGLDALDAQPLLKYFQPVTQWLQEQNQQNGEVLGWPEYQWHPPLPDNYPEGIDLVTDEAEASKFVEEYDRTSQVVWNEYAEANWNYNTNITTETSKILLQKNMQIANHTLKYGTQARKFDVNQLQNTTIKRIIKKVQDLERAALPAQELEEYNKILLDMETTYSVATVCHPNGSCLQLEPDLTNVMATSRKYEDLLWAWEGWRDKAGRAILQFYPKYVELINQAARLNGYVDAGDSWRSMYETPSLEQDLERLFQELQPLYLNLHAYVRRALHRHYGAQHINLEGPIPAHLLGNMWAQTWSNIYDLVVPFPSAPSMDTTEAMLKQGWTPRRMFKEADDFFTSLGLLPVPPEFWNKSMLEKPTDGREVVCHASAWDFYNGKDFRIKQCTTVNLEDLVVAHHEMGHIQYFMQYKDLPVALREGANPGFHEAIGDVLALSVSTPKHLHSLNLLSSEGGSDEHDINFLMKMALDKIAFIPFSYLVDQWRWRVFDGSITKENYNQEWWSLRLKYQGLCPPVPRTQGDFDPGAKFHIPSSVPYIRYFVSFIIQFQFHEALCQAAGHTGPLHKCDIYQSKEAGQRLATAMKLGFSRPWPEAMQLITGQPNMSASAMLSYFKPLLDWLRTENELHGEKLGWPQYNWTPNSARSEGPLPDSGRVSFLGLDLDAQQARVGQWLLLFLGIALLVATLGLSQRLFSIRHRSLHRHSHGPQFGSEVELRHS

[3] = species on record: Homo sapiens; assay: Selectivity for human recombinant ACE2 over human recombinant ACE
[4] = target: T2, Carboxypeptidase A1 (Homo sapiens, UniProt P15085); assay: Inhibition of human recombinant CpA by fluorescence assay; conditions: read-out: Ki app
T2 sequence (P15085 whole entry): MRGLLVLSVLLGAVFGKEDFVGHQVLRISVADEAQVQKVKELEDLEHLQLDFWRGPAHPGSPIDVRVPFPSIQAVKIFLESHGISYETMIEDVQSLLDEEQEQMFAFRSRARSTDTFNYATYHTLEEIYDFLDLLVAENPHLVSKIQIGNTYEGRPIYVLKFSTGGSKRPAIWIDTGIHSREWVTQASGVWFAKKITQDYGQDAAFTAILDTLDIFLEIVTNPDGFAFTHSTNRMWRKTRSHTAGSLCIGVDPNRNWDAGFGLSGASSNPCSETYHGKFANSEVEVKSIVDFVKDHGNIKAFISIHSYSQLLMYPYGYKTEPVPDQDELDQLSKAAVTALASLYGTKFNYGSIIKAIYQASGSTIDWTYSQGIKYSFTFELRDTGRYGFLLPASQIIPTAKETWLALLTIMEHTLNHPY

[5] = species on record: Homo sapiens; assay: Selectivity for human recombinant ACE2 over human recombinant CpA
[6] = target: T1, Angiotensin-converting enzyme 2; assay: Inhibition of human recombinant ACE2 by fluorescence assay; conditions: read-out: Ki app
[7] = target: Neprilysin (Homo sapiens, UniProt P08473); assay: Inhibition of human recombinant NEP by fluorescence assay; conditions: read-out: Ki app
Neprilysin, sequence (P08473 whole entry): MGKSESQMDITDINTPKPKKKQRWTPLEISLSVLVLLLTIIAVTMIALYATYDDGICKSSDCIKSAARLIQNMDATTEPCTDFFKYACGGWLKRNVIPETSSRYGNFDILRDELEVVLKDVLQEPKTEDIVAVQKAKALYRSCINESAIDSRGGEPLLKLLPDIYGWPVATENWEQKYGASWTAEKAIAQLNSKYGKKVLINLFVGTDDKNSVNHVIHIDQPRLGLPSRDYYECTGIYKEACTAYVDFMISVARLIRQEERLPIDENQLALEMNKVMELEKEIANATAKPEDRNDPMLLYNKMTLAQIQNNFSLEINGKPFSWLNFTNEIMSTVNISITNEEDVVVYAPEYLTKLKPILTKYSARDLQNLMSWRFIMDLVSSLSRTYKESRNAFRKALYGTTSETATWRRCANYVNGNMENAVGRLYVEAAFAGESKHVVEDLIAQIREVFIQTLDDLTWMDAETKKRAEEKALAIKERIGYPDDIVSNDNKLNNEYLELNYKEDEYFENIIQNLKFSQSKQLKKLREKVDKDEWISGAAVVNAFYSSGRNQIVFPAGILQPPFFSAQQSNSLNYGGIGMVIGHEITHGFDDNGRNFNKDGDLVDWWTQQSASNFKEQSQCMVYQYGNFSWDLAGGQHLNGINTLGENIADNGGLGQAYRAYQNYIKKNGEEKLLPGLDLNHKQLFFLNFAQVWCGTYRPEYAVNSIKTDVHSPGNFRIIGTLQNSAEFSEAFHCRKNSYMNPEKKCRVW

[8] = species on record: Homo sapiens; assay: Selectivity for human recombinant ACE2 over human recombinant NEP

T1 sequence (Q9BYF1 whole entry): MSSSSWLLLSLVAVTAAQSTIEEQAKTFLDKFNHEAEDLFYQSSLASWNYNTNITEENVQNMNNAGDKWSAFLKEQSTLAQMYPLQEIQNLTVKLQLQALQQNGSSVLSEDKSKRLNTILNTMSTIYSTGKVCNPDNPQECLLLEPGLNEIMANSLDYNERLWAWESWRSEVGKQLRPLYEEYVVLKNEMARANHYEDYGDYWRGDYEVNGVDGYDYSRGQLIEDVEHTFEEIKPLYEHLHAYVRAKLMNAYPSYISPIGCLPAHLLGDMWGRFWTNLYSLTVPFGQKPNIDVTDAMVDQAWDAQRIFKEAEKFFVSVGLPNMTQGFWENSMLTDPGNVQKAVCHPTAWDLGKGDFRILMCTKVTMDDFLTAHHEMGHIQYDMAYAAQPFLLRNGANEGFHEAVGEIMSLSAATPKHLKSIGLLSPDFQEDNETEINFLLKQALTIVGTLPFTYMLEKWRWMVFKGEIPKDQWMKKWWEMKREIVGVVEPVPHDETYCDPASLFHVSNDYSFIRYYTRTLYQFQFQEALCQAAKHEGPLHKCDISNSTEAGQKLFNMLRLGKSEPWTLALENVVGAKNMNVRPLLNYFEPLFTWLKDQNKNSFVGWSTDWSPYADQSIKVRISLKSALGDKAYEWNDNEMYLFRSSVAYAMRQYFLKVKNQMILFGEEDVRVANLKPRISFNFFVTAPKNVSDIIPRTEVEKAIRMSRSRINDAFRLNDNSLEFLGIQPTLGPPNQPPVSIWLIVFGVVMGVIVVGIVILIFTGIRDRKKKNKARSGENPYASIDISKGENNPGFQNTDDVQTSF

## CC(=O)NCC(=O)N[C@@H](CC(=O)O)C(=O)N[C@@H](Cc1ccc(O)cc1)C(=O)N[C@@H](CO)C(=O)N[C@@H](Cc1cnc[nH]1)C(=O)N[C@H]1CSSC[C@@H](C(=O)N[C@H](C(=O)N[C@@H](Cc2ccc(O)cc2)C(=O)N2CCC[C@H]2C(=O)N[C@@H](CC(=O)O)C(=O)N2CCC[C@H]2C(=O)N[C@@H](CCC(=O)O)C(=O)NCC(=O)NCC(=O)NCC(N)=O)[C@@H](C)O)NC(=O)[C@H](CCCCN)NC(=O)[C@H](Cc2c[nH]c3ccccc23)NC(=O)[C@H](Cc2c[nH]c3ccccc23)NC(=O)[C@@H]2CCCN2C(=O)[C@H](Cc2ccc(O)cc2)NC(=O)[C@H](Cc2ccc(O)cc2)NC(=O)[C@H](CCCNC(=N)N)NC(=O)[C@H](CC(C)C)NC(=O)[C@@H]2CCCN2C(=O)[C@H](CO)NC1=O
[1]
  pIC50: 8.00

## CC[C@@H](C)[C@H](S)C(=O)N[C@@H](Cc1ccc(OCc2ccc(F)c(F)c2)cc1)C(=O)O
[2]
  pKi: 5.74
[3]
  Selectivity ratio: > 750
[4]
  pKi: 5.48
[5]
  Selectivity ratio: > 750
[6]
  pKi: 9.07
[7]
  pKi: 6.19

## CC[C@@H](C)[C@H](S)C(=O)N[C@@H](Cc1ccc(OCc2ccc(C(F)(F)F)cc2)cc1)C(=O)O
[2]
  pKi: 5.59
[4]
  pKi: 5.34
[6]
  pKi: 7.46
[7]
  pKi: 5.82

## CC[C@@H](C)[C@H](S)C(=O)N[C@@H](Cc1ccc(OCc2ccc(F)cc2)cc1)C(=O)O
[2]
  pKi: 5.40
[4]
  pKi: 4.80
[6]
  pKi: 8.60
[7]
  pKi: 6.74

## CC[C@@H](C)[C@H](S)C(=O)N[C@@H](Cc1cccc2ccccc12)C(=O)O
[2]
  pKi: 5.74
[3]
  Selectivity ratio: > 100
[4]
  pKi: 5.44
[5]
  Selectivity ratio: > 100
[6]
  pKi: 8.66
[7]
  pKi: 7.92

## CC[C@@H](C)[C@H](S)C(=O)N[C@@H](Cc1cccc(Oc2ccccc2)c1)C(=O)O
[2]
  pKi: 5.96
[4]
  pKi: 4.85
[6]
  pKi: 8.24
[7]
  pKi: 7.10

## CC[C@@H](C)[C@H](S)C(=O)N[C@@H](Cc1ccccc1OCc1ccccc1)C(=O)O
[2]
  pKi: 6.11
[4]
  pKi: 5.80
[8]
  Selectivity ratio: 20
[6]
  pKi: 8.22
[7]
  pKi: 6.92

## CC[C@@H](C)[C@H](S)C(=O)N[C@@H](Cc1cccc(OCc2ccccc2)c1)C(=O)O
[2]
  pKi: 6.12
[4]
  pKi: 5.30
[8]
  Selectivity ratio: 15
[6]
  pKi: 8.62
[7]
  pKi: 7.43

## CC[C@@H](C)[C@H](S)C(=O)N[C@@H](Cc1ccccc1Oc1ccccc1)C(=O)O
[2]
  pKi: 5.30
[4]
  pKi: 5.64
[8]
  Selectivity ratio: 200
[6]
  pKi: 9.05
[7]
  pKi: 6.74

## CC[C@@H](C)[C@H](S)C(=O)NCC(=O)O
[2]
  pKi: 6.60
[4]
  pKi: 4.46
[6]
  pKi: 7.05
[7]
  pKi: 5.29

## CC[C@@H](C)[C@H](S)C(=O)N[C@@H](C)C(=O)O
[2]
  pKi: 6.74
[4]
  pKi: 4.96
[6]
  pKi: 7.85
[7]
  pKi: 6.02

## CC[C@@H](C)[C@H](S)C(=O)N[C@@H](Cc1ccccc1-c1ccccc1)C(=O)O
[2]
  pKi: 4.70
[4]
  pKi: 5.00
[6]
  pKi: 7.43
[7]
  pKi: 6.72

## CC[C@@H](C)[C@H](S)C(=O)N[C@@H](Cc1ccc(O)cc1)C(=O)O
[2]
  pKi: 6.39
[4]
  pKi: 6.46
[6]
  pKi: 8.89
[7]
  pKi: 7.12

## CC[C@@H](C)[C@H](S)C(=O)N[C@@H](Cc1ccc2ccccc2c1)C(=O)O
[2]
  pKi: 6.51
[3]
  Selectivity ratio: > 100
[4]
  pKi: 5.14
[5]
  Selectivity ratio: > 100
[6]
  pKi: 8.62
[7]
  pKi: 7.34

## CC[C@@H](C)[C@H](S)C(=O)N[C@@H](Cc1cccc(-c2ccccc2)c1)C(=O)O
[2]
  pKi: 6.00
[4]
  pKi: 5.30
[6]
  pKi: 8.66
[7]
  pKi: 7.72

## CC[C@@H](C)[C@H](S)C(=O)N[C@@H](Cc1ccccc1)C(=O)O
[2]
  pKi: 6.24
[4]
  pKi: 6.28
[6]
  pKi: 8.82
[7]
  pKi: 7.46

## CC[C@@H](C)[C@H](S)C(=O)N[C@@H](Cc1ccc(OCc2cc(C(F)(F)F)cc(C(F)(F)F)c2)cc1)C(=O)O
[2]
  pKi: 4.60
[4]
  pKi: 4.96
[6]
  pKi: 7.08
[7]
  pKi: 4.96

## CC[C@@H](C)[C@H](S)C(=O)N[C@@H](Cc1ccc(OCc2ccccc2)cc1)C(=O)O
[2]
  pKi: 6.24
[4]
  pKi: 5.34
[8]
  Selectivity ratio: 110
[6]
  pKi: 8.57
[7]
  pKi: 6.52

## NCCNCCN1CC1
[1]
  pIC50: 4.24

## CC[C@@H](C)[C@H](S)C(=O)N[C@@H](Cc1ccc(Oc2ccccc2)cc1)C(=O)O
[2]
  pKi: 6.60
[3]
  Selectivity ratio: > 100
[4]
  pKi: 5.05
[6]
  pKi: 8.66
[7]
  pKi: 8.00

## CC[C@@H](C)[C@H](S)C(=O)N[C@@H](Cc1ccc(OCc2ccc(F)cc2F)cc1)C(=O)O
[2]
  pKi: 6.02
[4]
  pKi: 5.72
[6]
  pKi: 8.70
[7]
  pKi: 7.12
